The values that follow come from patent US10945978B2, “Treatment and diagnosis of melanoma” (The Rockefeller University, priority 2012, dated 2021).

The test system of assay [1] is B16F10 mouse melanoma cells. Kind of assay: Subcutaneous B16F10 tumor growth in C57BL/6 mice. The settings on record: for suppression of tumor growth: 20 mg/kg.
Description: Animals were palpated weekly for tumor formation, after which sizeable tumors were measured twice a week. Tumor volume was calculated as (small diameter)^2×(large diameter)/2.
In assay [2] the test system is human umbilical vein endothelial cells (HUVEC's). As to the kind of experiment: Endothelial recruitment assay (HUVEC migration towards melanoma cells). The assay is classed as cell-based. The settings on record: for ability of melanoma cells to recruit endothelial cells: MeWo, HT-144, SK-Mel-2, SK-Mel-334.2, 1 μM for 72 hours. The procedure:
5×10^4 cancer cells were seeded into 24-well plates approximately 24 hours prior to the start of the assay. HUVEC's were grown to 80% confluency and serum starved in EGM-2 media supplemented with 0.2% FBS for 16 hours. HUVEC's were then pulsed with Cell Tracker Red CMTPX dye (C34552, Invitrogen) for 45 minutes. Meanwhile, cancer cells were washed with PBS, 0.5 mL of 0.2% FBS EGM-2 media was added to each well, and a 3.0 μm HTS Fluoroblock insert (351151, BD Falcon, San Jose, Calif.) was placed into each well. 1×10^5 HUVEC's, resuspended in 0.5 mL of starvation media, were seeded into each trans-well insert, and the recruitment assay was allowed to proceed for 16-18 hours at 37° C. For neutralization antibody and/or recombinant protein experiments, antibody/protein was then added to each well at the appropriate concentration as indicated in the figures: 40 μg/mL anti-ApoE 1D7, 40 μg/mL anti-IgG, 100 μM rhApoE3, and 100 μM BSA. Upon completion of the assay, the inserts were processed and analyzed as described for the matrigel invasion assay above (See Matrigel Invasion Assay).
The endothelial recruitment assay was carried out as previously described (Pencheva et al., 2012; Png et al., 2012). Melanoma cells were treated with DMSO, GW3965, T0901317, or Bexarotene at 1 μM for 56 hours, after which 5×10^4 cells were seeded in a 24-well plate in the presence of each drug and allowed to attach for 16 hours prior to starting the assay. HUVEC cells were serum-starved overnight in EGM-2 media containing 0.2% FBS. The following day, 1×10^5 HUVEC cells were seeded into a 3.0 μm HTS Fluoroblock trans-well migration insert (351151, BD Falcon, San Jose, Calif.) fitted into each well containing cancer cells at the bottom. The HUVEC cells were allowed to migrate towards the cancer cells for 20 hours at 37° C., after which the inserts were processed as previously described (Pencheva et al., 2012). For ApoE antibody neutralization experiments, 40 μg/mL 1D7 anti-ApoE blocking antibody (Heart Institute, University of Ottawa, Ottawa, Canada) or 40 μg/mL anti-IgG control antibody (AB-108-C, R&D Systems, Minneapolis, Minn.) was added to each trans-well insert at the start of the assay.
Subsequently, 5×10^4 cancer cells were seeded into 24-well plates in the presence of each drug or DMSO and allowed to attach for 16 hours prior to starting the assay. Human umbilical vein endothelial cells (HUVEC cells) were serum-starved in 0.2% FBS-containing media overnight. The following day, 1×10^5 HUVEC cells were seeded into a 3.0 μm HTS Fluoroblock insert (351151, BD Falcon) fitted into each well containing the cancer cells at the bottom. The HUVEC cells were allowed to migrate towards the cancer cells for 20 hours, after which the inserts were washed in PBS, fixed in 4% PFA, labeled with DAPI, and mounted on slides. The basal side of each insert was imaged using an inverted fluorescence microscope (Zeiss Axiovert 40 CFL) at 5× magnification, and the number of DAPI-positive cells was quantified using ImageJ.

Assay [3] deals with ApoE promoter fused to ME.1 or ME.2. Kind of assay: ApoE promoter activity assay (luciferase). In kind it is cell-based, human. The settings on record: MeWo cells; 1 μM, 24 hours. An excerpt:
The ApoE promoter, consisting of a sequence spanning 980 base pairs upstream and 93 base pairs downstream of the ApoE gene, was cloned into a pGL3-Basic vector (E1751, Promega Corporation, Madison, Wis.) upstream of the firefly luciferase gene using NheI and SacI restriction enzymes. Then, multi-enhancer elements 1 (ME. 1) and 2 (ME.2) were cloned directly upstream of the ApoE promoter using MluI and SacI restriction enzymes. To assess ApoE promoter- and ME.1/ME.2-driven transcriptional activation by LXR agonists, 5×10^4 MeWo cells were seeded into a 24-well plate. The following day, 100 ng of pGL3-ME. […] To assess transcriptional activation by LXRα or LXR(3, 5×10^4 MeWo cells expressing a control shRNA or shRNA targeting LXRα or LXRβ were seeded into a 24-well plate. The following day, 200 ng of pGL3-ME. 1/ME.2-ApoE promoter construct and 2 ng of pRL-CMV renilla luciferase were co-transfected into cells in the presence of DMSO, GW3965, or T0901317 at 1 μM, each condition in quadruplicate. After 24 hours, cells were lysed, and cell lysate was analyzed for firefly and renilla luciferase activity using the Dual Luciferase Assay System (E1960, Promega) and a Bio-Tek Synergy NEO Microplate Reader. Firefly luciferase signal was normalized to renilla luciferase signal and all data are expressed relative to the luciferase activity ratio measured in the DMSO-treated control cells.

For another assay, the system named is ApoE. As to the kind of experiment: ApoE expression in mice fed LXR agonist diet (western blot, qRT-PCR). The assay is classed as in vivo, mouse. The settings on record: 10 days; for ApoE protein expression in systemic adipose, lung, and brain tissues: chow 20 mg/kg, western blot; for ApoE transcript levels in circulating white blood cells: diet 20 mg/kg, qRT-PCR. The procedure:
Mouse lung and brain tissue samples were homogenized on ice in RIPA buffer (Sigma-Aldrich) supplemented with protease inhibitors (Roche). Mouse adipose tissue was homogenized on ice in TNET buffer (1.5 mM Tris pH 7.5, 150 mM NaCl, 2 mM EDTA 1% triton, protease inhibitors). Total protein lysate (2 jag) was separated by SDS-PAGE, transferred to PVDF membrane, and blotted with an anti-mouse ApoE (ab20874, Abcam) and anti-tubulin α/β (2148, Cell Signaling) antibodies. RNA was extracted from whole cell lysates using the Total RNA Purification Kit (17200, Norgen, Thorold, Canada). 600 ng of total RNA was then reverse transcribed into cDNA using the cDNA First-Strand Synthesis Kit (18080-051, Invitrogen), and quantitative real-time PCR amplification was performed as previously described (Pencheva et al., 2012) using an ABI Prism 7900HT Real-Time PCR System (Applied Biosystems, Austin, Tex.). Each PCR reaction was carried out in quadruplicates. Gene expression was normalized to GAPDH, which was used as an endogenous control.

The subject of another assay is Extracellular ApoE. Kind of assay: ApoE ELISA in conditioned media. In kind it is cell-based, human. The settings on record: MeWo cells; 1 μM, 72 hours. The procedure:
Extracellular ApoE levels in serum-free conditioned media from melanoma cells treated with DMSO, GW3965, or T0901317 (1 μM each) were quantified using the ApoE ELISA kit (Innovative Research) at 72 hours following treatment.
For orientation: In an ELISA, binding on a coated surface is turned into a signal by an enzyme label.

Structures can show the parent of a compound that is named as a salt.

For `O=C(O)Cc1cccc(OCCCN(Cc2cccc(C(F)(F)F)c2Cl)CC(c2ccccc2)c2ccccc2)c1` [GW3965 2, 3-[3-[N-(2-Chloro-3-trifluoromethylbenzyl)-(2,2-diphenylethyl)amino]propyloxy] phenylacetic acid hydrochloride], the “suppression of tumor growth in mice genetically inactivated for ApoE” value in assay [1] (ApoE−/− mice, GW3965 diet 20 mg/kg, 7 days) was “completely ineffective”. Further, the “suppression of tumor growth” value in assay [1] (oral, from tumors of 5-10 mm3) is given as 67%. Also, in assay [1] (oral, 100 mg/kg, from tumors of 5-10 mm3), the “reduction in tumor growth” value is recorded as 80%. Also, in assay [1] (tumors ~150 mm3, chow containing GW3965 150 mg/kg), the “reduction in the growth of established large tumors” value is reported as “roughly 50%”. In assay [2] (MeWo cells pre-treated 48 hours), the endothelial recruitment result is reported as “decreased”. Also, the “ability of melanoma cells to recruit endothelial cells” value in assay [2] is given as “consistently suppressed”. The “activity of luciferase reporter with ApoE promoter fused to ME.1 or ME.2” value in assay [3] was “enhance”. Moreover, in the assay with ApoE, the “ApoE protein expression in systemic adipose, lung, and brain tissues” value is “significantly elevated”; the “ApoE transcript levels in circulating white blood cells” value is “upregulated”. Besides, the “levels of secreted ApoE protein” value in the assay on Extracellular ApoE was “elevated levels”.
On to `O=S(=O)(c1ccccc1)N(CC(F)(F)F)c1ccc(C(O)(C(F)(F)F)C(F)(F)F)cc1` [T0901317 1], for which the “suppression of tumor growth” value in assay [1] (oral, from tumors of 5-10 mm3) was 61%. Moreover, in assay [2], the “ability of melanoma cells to recruit endothelial cells” value is recorded as “consistently suppressed”. For the same compound, the “activity of luciferase reporter with ApoE promoter fused to ME.1 or ME.2” value in assay [3] is reported as “enhance”. In the assay on ApoE, the “ApoE protein expression in systemic adipose, lung, and brain tissues” value is “significantly elevated”; the “ApoE transcript levels in circulating white blood cells” value was “upregulated”. In the assay on Extracellular ApoE, the “levels of secreted ApoE protein” value is reported as “elevated levels”.
In the case of “recombinant human ApoE: recombinant human ApoE3 (4696, BioVision)”, in assay [2] (endothelial cells pre-incubated with ApoE3 100 μM for 24 hours, LM2 cells), the “migration of endothelial cells towards highly metastatic cancer cells” value is reported as “significantly reduced”. The endothelial recruitment entry in assay [2] (metastatic LM2 cells, recombinant ApoE3 100 μM vs BSA) is listed as “significantly suppressed”.
